Reference: patent US9862712B2, “Benzimidazole based EGFR inhibitors” (COUNCIL OF SCIENTIFIC & INDUSTRIAL RESEARCH, priority 2014, dated 2018)

Key:
[1] = test system: A549 Cell line (Lung Cancer Cell line); assay: MTT cell proliferation assay, A549 Cell line; assay type: cell-based, human; settings: Homo sapiens, 72 h, MTT; for viability at 0.01 µM: A549, 0.01 μM; for viability at 0.1 µM: A549, 0.1 μM; for viability at 2.5 µM: A549, 2.5 μM; for viability at 5 µM: A549, 5 μM; for viability at 10 µM: A549, 10 μM
Protocol: (§1) 1. Protocol Followed for Anti Cancer Activity and Results, Cell Proliferation Assays: Cell lines used herein were purchased from NCCS (National Center for Cell Sciences) Pune, India. Invitro Activity was performed in NCL (National Chemical Laboratory) Pune. Each cell line was plated in 96-well microtiter plates (10,000 cells per well), and serial dilutions of indicated compounds were added. At the end of the incubation period (72 h at 37° C.), cell viability was determined by a tetrazolium dye, MTT (3-(4,5-dimethylthiazol-2-yl)-2,5-diphenyl tetrazolium bromide) (Promega, USA). The formazan crystals were dissolved in DMSO, and the absorbance at 600 nm was recorded using an ELISA plate reader. IC50 values were calculated using nonlinear regression and defined as the concentration needed for a 50% reduction in absorbance of treated versus untreated control cells.
By using the above procedure, the compounds of the invention were tested on A549 Cell line and the results obtained are presented below in table 4, Refer FIG. 1.

MDA-MB-436 Cell line = assay: MTT cell proliferation assay, MDA-MB-436 Cell line; assay type: cell-based; settings: Homo sapiens, 72 h, MTT; for viability at 0.01 µM: MDA-MB-436, 0.01 μM; for viability at 0.1 µM: MDA-MB-436, 0.1 μM; for viability at 2.5 µM: MDA-MB-436, 2.5 μM; for viability at 5 µM: MDA-MB-436, 5 μM; for viability at 10 µM: MDA-MB-436, 10 μM
Protocol: as §1
By using the above procedure, the compounds of the invention were tested on MDA-MB-436 Cell line and the results obtained are presented below in table 7, Refer FIG. 4.

MCF-7 Cell line = assay: MTT cell proliferation assay, MCF-7 Cell line; assay type: cell-based; settings: Homo sapiens, MCF7, 72 h, MTT; for viability at 0.01 µM: MCF-7, 0.01 μM; for viability at 0.1 µM: MCF-7, 0.1 μM; for viability at 2.5 µM: MCF-7, 2.5 μM; for viability at 5 µM: MCF-7, 5 μM; for viability at 10 µM: MCF-7, 10 μM
Protocol: as §1
Table 4 indicates anticancer activity against A549 Cell line. The Gefitinib was used as standard and % cell Viable was measured compared to control. The procedure used was MTT assay as mentioned. […] By using the above procedure, the compounds of the invention were tested on MCF-7 Cell line and the results obtained are presented below in table 5, Refer FIG. 2.

Log P (Table 3) = assay type: physicochemical; settings: no method given
HOP-62 Cell line = assay: MTT cell proliferation assay, HOP-62 Cell line; assay type: cell-based; settings: Homo sapiens, 72 h, MTT; for viability at 0.01 µM: HOP-62, 0.01 μM; for viability at 0.1 µM: HOP-62, 0.1 μM; for viability at 2.5 µM: HOP-62, 2.5 μM; for viability at 5 µM: HOP-62, 5 μM; for viability at 10 µM: HOP-62, 10 μM
Protocol: as §1
By using the above procedure, the compounds of the invention were tested on HOP-62 Cell line and the results obtained are presented below in table 6, Refer FIG. 3.

[2] = test system: U87MG Cell line (Glioblastoma cell line); assay: MTT cell proliferation assay, U87MG Cell line; assay type: cell-based; settings: Homo sapiens, U-87 MG, U87MG, 72 h, MTT
Protocol: as §1
By using the above procedure, the compounds of the invention were tested on U87MG Cell line (glioblastoma cell line) and the results obtained are presented below in table 8, Refer FIG. 5.

Row | SMILES | viability at 0.01 µM [1] | viability at 0.1 µM [1] | viability at 2.5 µM [1] | viability at 5 µM [1] | viability at 10 µM [1] | viability at 0.01 µM (MDA-MB-436 Cell line) | viability at 0.1 µM (MDA-MB-436 Cell line) | viability at 2.5 µM (MDA-MB-436 Cell line) | viability at 5 µM (MDA-MB-436 Cell line) | viability at 10 µM (MDA-MB-436 Cell line) | viability at 0.01 µM (MCF-7 Cell line) | viability at 0.1 µM (MCF-7 Cell line) | viability at 2.5 µM (MCF-7 Cell line) | viability at 5 µM (MCF-7 Cell line) | viability at 10 µM (MCF-7 Cell line) | viability at 0.01 µM (HOP-62 Cell line) | viability at 0.1 µM (HOP-62 Cell line) | viability at 2.5 µM (HOP-62 Cell line) | viability at 5 µM (HOP-62 Cell line) | viability at 10 µM (HOP-62 Cell line) | other results
1 | Cc1cc(C)c(Nc2nc(N)c(-c3nc4ccccc4[nH]3)s2)c(C)c1 [Molecule S4-M6, 5-(1H-benzo[d]imidazol-2-yl)-N^2-mesitylthiazole-2,4-diamine] | 92.3% | 85.1% | 72% | 61% | 50% | 116% | 112% | 110% | 105% | 101% | 112% | 100% | 101% | 100% | 100% | 103% | 100% | 100% | 100% | 91% | melting point: 218 to 220 °C; logP (Log P (Table 3)): 2.11; viability at 0.01 µM [2]: 91.3%; viability at 0.1 µM [2]: 82.1%; viability at 2.5 µM [2]: 70%; viability at 5 µM [2]: 59%; viability at 10 µM [2]: 42.4%
2 | Nc1nc(Nc2ccc([N+](=O)[O-])cc2)sc1-c1nc2ccccc2[nH]1 [Molecule S4-M3, 5-(1H-benzo[d]imidazol-2-yl)-N^2-(4-nitrophenyl)thiazole-2,4-diamine] | 97.6% | 90.4% | 81.8% | 71.8% | 62.8% | 99.6% | 94.4% | 90.8% | 79.8% | 66.8% | 99.6% | 92.4% | 90.8% | 84.8% | 72.8% | 99.6% | 94.4% | 90.8% | 90.8% | 88.8% | melting point: 260 to 262 °C; logP (Log P (Table 3)): 3.32; viability at 0.01 µM [2]: 96.6%; viability at 0.1 µM [2]: 82.4%; viability at 2.5 µM [2]: 69.8%; viability at 5 µM [2]: 55.8%; viability at 10 µM [2]: 30.8%
3 | Nc1nc(Nc2cccc(C(F)(F)F)c2)sc1-c1nc2ccccc2[nH]1 [Molecule S4-M8, 5-(1H-benzo[d]imidazol-2-yl)-N2-(3-(trifluoromethyl)phenyl)thiazole-2,4-diamine] | 98.6% | 88.8% | 76.6% | 68.6% | 59.6% | 101% | 99.8% | 98.6% | 97.6% | 97.6% | 98.6% | 90.8% | 82.6% | 79.6% | 69.6% | 99.6% | 90.8% | 89.6% | 81.6% | 80.6% | viability at 0.01 µM [2]: 86.6%; viability at 0.1 µM [2]: 73.8%; viability at 2.5 µM [2]: 61.6%; viability at 5 µM [2]: 54.6%; viability at 10 µM [2]: 41.6%
4 | Cc1ccc2[nH]c(-c3sc(Nc4cccc(C(F)(F)F)c4)nc3N)nc2c1 [Molecule S4-M13, N^2-(3-(trifluoromethyl)phenyl)-5-(5-methyl-1H-benzo[d]imidazol-2-yl)thiazole-2,4-diamine] | 99.4% | 82.9% | 73.6% | 61.6% | 50.6% | 98.4% | 96.9% | 97.4% | 97.6% | 97.9% | 99.4% | 92.9% | 81.4% | 72.6% | 66.9% | 99.4% | 96.9% | 90.4% | 80.6% | 75.6% | viability at 0.01 µM [2]: 95.8%; viability at 0.1 µM [2]: 83.7%; viability at 2.5 µM [2]: 71.2%; viability at 5 µM [2]: 60.8%; viability at 10 µM [2]: 53.8%
5 | Cc1ccc(Nc2nc(N)c(-c3nc4cc(C)ccc4[nH]3)s2)cc1 [Molecule S4-M14, 5-(5-methyl-1H-benzo[d]imidazol-2-yl)-N2-p-tolylthiazole-2,4-diamine] | 96% | 84.1% | 71.1% | 62.1% | 51.1% | 99% | 98.1% | 98.6% | 99.3% | 94.1% | 94% | 90.1% | 83.6% | 69.3% | 65.1% | 101% | 95.1% | 93.6% | 88.3% | 80.1% | viability at 0.01 µM [2]: 87%; viability at 0.1 µM [2]: 78.1%; viability at 2.5 µM [2]: 67.6%; viability at 5 µM [2]: 53.3%; viability at 10 µM [2]: 46.1%
